Values belong to the molecule of their own block, whether it stands above or below them.
Assays:
Plasma [1] = experiment: Prodrug conversion in rat plasma assessed as compound conversion to 7-((R)-2-((R,E)-4,4-difluoro-3-hydroxy-4-phenylbut-1-enyl)-5-oxopyrrolidin-1-yl)heptanoic acid at 100 ug/ml after 30 mins by HPLC analysis; type: ADME, cell-free; conditions: 0.5 h
Bone [2] = experiment: Binding affinity to rat bone at 0.1 mg/ml after 10 mins; type: ADME, tissue-based, Bone element
Bone [3] = experiment: Drug uptake in Sprague-Dawley rat bone at 10 mg/kg, iv after 2 days; type: ADME, organism-based, Bone element; design: dose 10 mg/kg, route intravenous; conditions: in vivo, 48 h
[4] = Elimination half life in Sprague-Dawley rat at 10 mg/kg, iv; type: ADME, organism-based; design: dose 10 mg/kg, route intravenous; conditions: in vivo, read-out: beta t1/2
Bone [5] = experiment: Drug uptake in Sprague-Dawley rat bone at 10 mg/kg, iv after 7 days; type: ADME, organism-based, Bone element; design: dose 10 mg/kg, route intravenous; conditions: in vivo, 168 h
Bone [6] = experiment: Drug uptake in Sprague-Dawley rat bone at 10 mg/kg, iv after 14 days; type: ADME, organism-based, Bone element; design: dose 10 mg/kg, route intravenous; conditions: in vivo, 336 h
Bone [7] = experiment: Drug uptake in Sprague-Dawley rat bone at 10 mg/kg, iv after 6 hrs; type: ADME, organism-based, Bone element; design: dose 10 mg/kg, route intravenous; conditions: in vivo
[8] = Drug excretion in Sprague-Dawley rat urine at 5 mg/kg, iv after 24 hrs; type: ADME, organism-based; design: dose 5 mg/kg, route intravenous; conditions: in vivo
Bone [9] = experiment: Drug uptake in Sprague-Dawley rat bone at 5 mg/kg, iv after 28 days; type: ADME, organism-based, Bone element; design: dose 5 mg/kg, route intravenous; conditions: in vivo, 672 h
Bone [10] = experiment: Drug uptake in Sprague-Dawley rat bone at 5 mg/kg, iv after 7 days; type: ADME, organism-based, Bone element; design: dose 5 mg/kg, route intravenous; conditions: in vivo, 168 h
Bone [11] = experiment: Drug uptake in rat bone after 5 mins; type: ADME, tissue-based, Bone element; conditions: in vivo
[12] = Drug excretion in Sprague-Dawley rat feces at 5 mg/kg, iv after 24 hrs; type: ADME, organism-based; design: dose 5 mg/kg, route intravenous; conditions: in vivo
Bone [13] = experiment: Drug uptake in Sprague-Dawley rat bone at 5 mg/kg, iv after 24 hrs; type: ADME, organism-based, Bone element; design: dose 5 mg/kg, route intravenous; conditions: in vivo
[14] = Elimination half life in Sprague-Dawley rat at 5 mg/kg, iv; type: ADME, organism-based; design: dose 5 mg/kg, route intravenous; conditions: in vivo, read-out: beta t1/2
Rattus norvegicus = experiment: Toxicity in Sprague-Dawley rat at 5 mg/kg, iv; type: organism-based; design: dose 5 mg/kg, route intravenous; conditions: in vivo
Bone [15] = experiment: Drug uptake in Sprague-Dawley rat bone at 5 mg/kg, iv after 14 days; type: ADME, organism-based, Bone element; design: dose 5 mg/kg, route intravenous; conditions: in vivo, 336 h
Plasma [16] = experiment: Prodrug conversion in rat plasma assessed as compound conversion to 7-((R)-2-((R,E)-4,4-difluoro-3-hydroxy-4-phenylbut-1-enyl)-5-oxopyrrolidin-1-yl)heptanoic acid at 100 ug/ml for 96 hrs by HPLC-MS-MS analysis; type: ADME, cell-free

Drug metabolism (Plasma [1]): Active | Activity (Bone [2]): Not Active
SMILES: CCOC(=O)CCCCCCN1C(=O)CC[C@@H]1/C=C/[C@@H](O)C(F)(F)c1ccccc1

Drug excretion [8]: Not Active | Drug uptake (Bone [9]): 5.6% | Activity (Bone [2]): 90% | Drug uptake (Bone [10]): 8% | Drug uptake (Bone [11]): 96% | Drug excretion [12]: Active | Drug uptake (Bone [13]): 9.4% | half-life [14]: < 15 min | Drug uptake (Bone [15]): 6.2%
SMILES: [3H]C([3H])([3H])COC(=O)CCCCCCN1C(=O)CC[C@@H]1/C=C/[C@@H](OC(=O)NCCCC(O)(P(=O)(O)O)P(=O)(O)O)C(F)(F)c1ccccc1
Activity (Rattus norvegicus): Non-toxic

Drug metabolism (Plasma [16]): Not Active
SMILES: CCOC(=O)CCCCCCN1C(=O)CC[C@@H]1/C=C/[C@@H](OC(=O)NCCCC(O)(P(=O)(O)O)P(=O)(O)O)C(F)(F)c1ccccc1

Continued, molecule first:

SMILES: CCN(CC)CC.[3H]C([3H])([3H])COC(=O)CCCCCCN1C(=O)CC[C@@H]1/C=C/[C@@H](OC(=O)Cc1ccc(OC(=O)NCCCC(O)(P(=O)(O)O)P(=O)(O)O)cc1)C(F)(F)c1ccccc1
Drug uptake (Bone [3]): 4.9% | half-life [4]: < 30 min | Drug uptake (Bone [5]): 2.2% | Drug uptake (Bone [6]): 1.4% | Drug uptake (Bone [7]): 5.9%

SMILES: O=C(O)CCCCCCN1C(=O)CC[C@@H]1/C=C/[C@@H](O)C(F)(F)c1ccccc1
Activity (Bone [2]): Not Active

SMILES: O=C1CC[C@H](/C=C/[C@@H](O)C(F)(F)c2ccccc2)N1CCCCCCc1nnn[nH]1
Activity (Bone [2]): Not Active

Reference: ChEMBL document CHEMBL1955731, “Design and synthesis of novel bone-targeting dual-action pro-drugs for the treatment and reversal of osteoporosis” (Bioorg Med Chem, 2012)
